Experimental data reported in ChEMBL document CHEMBL1770058, “MMP-13 selective alpha-sulfone hydroxamates: identification of selective P1' amides” (Bioorg Med Chem Lett, 2011).

Experiments:
Interstitial collagenase = biological target: T1, Interstitial collagenase (Homo sapiens, UniProt P03956); test: Inhibition of human MMP1
T1 sequence (P03956 whole entry): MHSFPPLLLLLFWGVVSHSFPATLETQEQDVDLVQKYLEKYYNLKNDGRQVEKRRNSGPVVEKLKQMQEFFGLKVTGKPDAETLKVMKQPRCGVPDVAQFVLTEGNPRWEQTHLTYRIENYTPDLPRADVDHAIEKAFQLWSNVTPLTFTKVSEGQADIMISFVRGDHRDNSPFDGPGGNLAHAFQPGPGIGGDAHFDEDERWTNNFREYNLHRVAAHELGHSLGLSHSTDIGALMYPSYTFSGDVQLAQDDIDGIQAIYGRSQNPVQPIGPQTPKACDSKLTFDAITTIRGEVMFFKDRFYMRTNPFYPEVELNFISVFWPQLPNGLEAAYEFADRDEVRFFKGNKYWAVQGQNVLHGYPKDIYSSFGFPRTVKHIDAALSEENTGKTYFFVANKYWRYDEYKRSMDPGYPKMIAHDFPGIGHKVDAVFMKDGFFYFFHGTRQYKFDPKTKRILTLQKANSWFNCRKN

[1] = biological target: Matrix metalloproteinase-14 (Homo sapiens, UniProt P50281); test: Inhibition of human MMP14
[2] = biological target: Matrix metalloproteinase-9 (Homo sapiens, UniProt P14780); test: Inhibition of human MMP9
Neutrophil collagenase = Neutrophil collagenase (Homo sapiens, UniProt P22894); test: Inhibition of human MMP8
Collagenase 3 = Collagenase 3 (Homo sapiens, UniProt P45452); test: Inhibition of human MMP13
[3] = biological target: 72 kDa type IV collagenase (Homo sapiens, UniProt P08253); test: Inhibition of human MMP2
[4] = Bioavailability in rat; format: ADME, organism-based; details: in vivo
[5] = Half life in rat; format: ADME, organism-based; details: in vivo

72 kDa type IV collagenase, sequence (P08253 whole entry): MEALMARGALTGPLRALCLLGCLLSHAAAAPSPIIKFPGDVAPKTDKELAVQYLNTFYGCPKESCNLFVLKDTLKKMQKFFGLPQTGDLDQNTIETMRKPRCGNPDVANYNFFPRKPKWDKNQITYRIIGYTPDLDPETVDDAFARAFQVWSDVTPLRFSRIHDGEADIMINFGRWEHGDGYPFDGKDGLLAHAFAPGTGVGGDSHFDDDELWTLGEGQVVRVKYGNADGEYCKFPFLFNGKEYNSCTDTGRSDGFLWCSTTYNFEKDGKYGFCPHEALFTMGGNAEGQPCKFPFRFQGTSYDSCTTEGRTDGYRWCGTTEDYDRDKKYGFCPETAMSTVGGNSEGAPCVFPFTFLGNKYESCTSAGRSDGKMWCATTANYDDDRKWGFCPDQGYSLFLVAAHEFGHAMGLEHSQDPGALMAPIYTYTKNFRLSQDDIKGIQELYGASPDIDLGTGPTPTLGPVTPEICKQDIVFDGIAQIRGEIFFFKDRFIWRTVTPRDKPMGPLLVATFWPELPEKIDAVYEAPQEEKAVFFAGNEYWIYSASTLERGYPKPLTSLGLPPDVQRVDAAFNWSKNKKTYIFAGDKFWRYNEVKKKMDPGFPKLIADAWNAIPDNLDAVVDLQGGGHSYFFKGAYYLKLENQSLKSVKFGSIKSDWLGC
Neutrophil collagenase, sequence (P22894 whole entry): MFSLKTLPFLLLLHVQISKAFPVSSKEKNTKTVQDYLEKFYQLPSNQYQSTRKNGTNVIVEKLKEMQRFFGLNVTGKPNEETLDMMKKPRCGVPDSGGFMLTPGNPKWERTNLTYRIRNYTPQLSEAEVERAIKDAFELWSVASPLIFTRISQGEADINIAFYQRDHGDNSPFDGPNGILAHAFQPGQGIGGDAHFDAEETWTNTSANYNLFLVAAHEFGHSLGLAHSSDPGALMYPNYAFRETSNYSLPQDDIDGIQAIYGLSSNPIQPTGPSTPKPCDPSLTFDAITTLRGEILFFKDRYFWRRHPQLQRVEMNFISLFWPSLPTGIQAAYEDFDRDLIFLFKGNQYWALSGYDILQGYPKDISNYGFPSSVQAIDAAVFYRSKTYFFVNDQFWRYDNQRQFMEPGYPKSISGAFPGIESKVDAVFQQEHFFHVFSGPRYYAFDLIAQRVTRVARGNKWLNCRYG
Matrix metalloproteinase-9, sequence (P14780 whole entry): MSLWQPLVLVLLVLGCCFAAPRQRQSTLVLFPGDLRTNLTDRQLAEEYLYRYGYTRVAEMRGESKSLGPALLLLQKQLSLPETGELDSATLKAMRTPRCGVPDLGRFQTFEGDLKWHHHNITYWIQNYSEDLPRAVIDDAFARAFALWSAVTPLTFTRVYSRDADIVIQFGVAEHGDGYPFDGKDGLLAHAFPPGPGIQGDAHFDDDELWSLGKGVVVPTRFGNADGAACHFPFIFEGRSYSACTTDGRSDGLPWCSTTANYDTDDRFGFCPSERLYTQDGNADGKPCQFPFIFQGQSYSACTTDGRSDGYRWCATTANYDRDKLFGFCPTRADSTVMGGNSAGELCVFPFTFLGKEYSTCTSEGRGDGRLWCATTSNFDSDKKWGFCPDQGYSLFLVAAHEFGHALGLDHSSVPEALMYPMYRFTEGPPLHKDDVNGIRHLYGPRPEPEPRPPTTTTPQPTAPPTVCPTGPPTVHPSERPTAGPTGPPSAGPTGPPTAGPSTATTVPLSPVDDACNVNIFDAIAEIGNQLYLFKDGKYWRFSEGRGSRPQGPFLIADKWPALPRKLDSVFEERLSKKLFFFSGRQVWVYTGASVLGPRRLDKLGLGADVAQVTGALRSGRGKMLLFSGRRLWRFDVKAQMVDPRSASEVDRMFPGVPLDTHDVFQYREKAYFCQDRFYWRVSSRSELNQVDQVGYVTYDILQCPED

Row | SMILES | IC50 [2] | IC50 (Neutrophil collagenase) | IC50 (Collagenase 3) | IC50 [3] | also measured
1 | C#CCN1CCC(C(=O)NO)(S(=O)(=O)c2ccc(Sc3ccccc3)cc2)CC1 |  |  |  |  | IC50 (Interstitial collagenase): > 5000 nM; IC50 [1]: 8 nM
2 | COc1ccc(NC(=O)CCCOc2ccc(S(=O)(=O)C3(C(=O)NO)CCOCC3)cc2)cc1 | 23 nM | 31 nM | 0.3 nM | 2.5 nM | 
3 | CN(C(=O)CCCOc1ccc(S(=O)(=O)C2(C(=O)NO)CCOCC2)cc1)c1ccc(OC(F)(F)F)cc1 | 380 nM | 49 nM | 3.3 nM | 270 nM | 
4 | CN(C)c1ccc(C(=O)C2CCN(c3ccc(S(=O)(=O)C4(C(=O)NO)CCOCC4)cc3)CC2)cc1 | > 10000 nM | > 10000 nM | 8 nM | 4000 nM | 
5 | CN(C)c1ccc(C(=O)CCCCOc2ccc(S(=O)(=O)C3(C(=O)NO)CCOCC3)cc2)cc1 | 1100 nM | 140 nM | 0.4 nM | 35 nM | 
6 | COc1ccc(C(=O)NCCCOc2ccc(S(=O)(=O)C3(C(=O)NO)CCOCC3)cc2)cc1 |  | 900 nM |  |  | bioavailability [4]: 1.5%; half-life [5]: 34.8 min
7 | CN(C)c1ccc(C(=O)NCCCOc2ccc(S(=O)(=O)C3(C(=O)NO)CCOCC3)cc2)cc1 |  | 1000 nM | 2 nM | 1100 nM | 
8 | O=C(NCCCOc1ccc(S(=O)(=O)C2(C(=O)NO)CCOCC2)cc1)c1ccc(OC(F)(F)F)cc1 | 2200 nM | 140 nM | 0.66 nM | 360 nM | 
9 | Cc1ccc(C(=O)NCCCOc2ccc(S(=O)(=O)C3(C(=O)NO)CCOCC3)cc2)c(C)c1 |  | 700 nM | 8 nM |  | 
10 | O=C(NCCCOc1ccc(S(=O)(=O)C2(C(=O)NO)CCOCC2)cc1)C1CCCCC1 |  | 3100 nM | 8.2 nM |  | 
11 | CCCC(C)(C)C(=O)NCCCOc1ccc(S(=O)(=O)C2(C(=O)NO)CCOCC2)cc1 |  | 1200 nM | 30 nM |  | 
12 | CN(C)c1ccc(C(=O)CCOc2ccc(S(=O)(=O)C3(C(=O)NO)CCOCC3)cc2)cc1 |  | 120 nM | 0.9 nM | 16 nM | 
13 | CN(C)c1ccc(C(=O)CCCOc2ccc(S(=O)(=O)C3(C(=O)NO)CCOCC3)cc2)cc1 |  | 170 nM |  |  | 
14 | CN(C)c1ccc(NC(=O)CCCOc2ccc(S(=O)(=O)C3(C(=O)NO)CCOCC3)cc2)cc1 |  | 100 nM |  | 10 nM | 
15 | O=C(CCCOc1ccc(S(=O)(=O)C2(C(=O)NO)CCOCC2)cc1)Nc1ccc(OC(F)(F)F)cc1 |  | 6.7 nM |  | 11 nM | 
16 | O=C(CCCOc1ccc(S(=O)(=O)C2(C(=O)NO)CCOCC2)cc1)N1CCCCC1 | 670 nM | 800 nM | 1.2 nM | 170 nM | 
17 | CN(C)c1ccc(NC(=O)CCCCOc2ccc(S(=O)(=O)C3(C(=O)NO)CCOCC3)cc2)cc1 |  | 2.6 nM |  |  | 
18 | COc1ccc(OCCCCOc2ccc(S(=O)(=O)C3(C(=O)NO)CCOCC3)cc2)cc1 |  | 67 nM |  |  | 
